Assay results published in patent US12466812B2, “Pyridinyltriazine derivative having protein kinase inhibitory activity, and pharmaceutical composition for preventing, ameliorating, or treating cancer comprising same” (KOREA INSTITUTE OF SCIENCE AND TECHNOLOGY, priority 2019, dated 2025).
Values belong to the molecule of their own block, whether it stands above or below them.

What was measured:
[1] = test system: AN3-CA, a uterine cancer cell line; assay: Inhibitory activity against cancer cell proliferation (Experimental Example 2); assay type: cell-based; details: Homo sapiens, Table 2
AN3-CA = assay: Pan-FGFR mutant cellular activity; assay type: cell-based; details: Homo sapiens, mutant cell, Table 4, read-out: GI50, AN3-CA (breast cancer cell line)
Experimental: (§1) The inhibitory activity against pan-FGFR mutants of the compounds synthesized in Examples 1, 8, 13, 22, and 24 was measured, the inhibitory activity on each of enzymatic activity and cellular activity was evaluated, and the results are shown in Tables 3 and 4 below.

[2] = test system: J82 (bladder cancer cell line); assay: Pan-FGFR mutant cellular activity; assay type: cell-based; details: Table 4
Experimental: as §1

[3] = test system: KMS-11 (myeloma cell line); assay: Pan-FGFR mutant cellular activity; assay type: cell-based; details: Homo sapiens, Table 4
Experimental: as §1

[4] = test system: UMUC3 (bladder cancer cell line); assay: Pan-FGFR mutant cellular activity; assay type: cell-based; details: Homo sapiens, Table 4
Experimental: as §1

FGFR2 mutant (V564F) = FGFR2 mutant (V564F) (Homo sapiens, UniProt P21802, V564F); assay: Pan-FGFR mutant enzymatic activity; assay type: biochemical; details: mutant enzyme
Chain of FGFR2 mutant (V564F) (P21802 22-821 V564F): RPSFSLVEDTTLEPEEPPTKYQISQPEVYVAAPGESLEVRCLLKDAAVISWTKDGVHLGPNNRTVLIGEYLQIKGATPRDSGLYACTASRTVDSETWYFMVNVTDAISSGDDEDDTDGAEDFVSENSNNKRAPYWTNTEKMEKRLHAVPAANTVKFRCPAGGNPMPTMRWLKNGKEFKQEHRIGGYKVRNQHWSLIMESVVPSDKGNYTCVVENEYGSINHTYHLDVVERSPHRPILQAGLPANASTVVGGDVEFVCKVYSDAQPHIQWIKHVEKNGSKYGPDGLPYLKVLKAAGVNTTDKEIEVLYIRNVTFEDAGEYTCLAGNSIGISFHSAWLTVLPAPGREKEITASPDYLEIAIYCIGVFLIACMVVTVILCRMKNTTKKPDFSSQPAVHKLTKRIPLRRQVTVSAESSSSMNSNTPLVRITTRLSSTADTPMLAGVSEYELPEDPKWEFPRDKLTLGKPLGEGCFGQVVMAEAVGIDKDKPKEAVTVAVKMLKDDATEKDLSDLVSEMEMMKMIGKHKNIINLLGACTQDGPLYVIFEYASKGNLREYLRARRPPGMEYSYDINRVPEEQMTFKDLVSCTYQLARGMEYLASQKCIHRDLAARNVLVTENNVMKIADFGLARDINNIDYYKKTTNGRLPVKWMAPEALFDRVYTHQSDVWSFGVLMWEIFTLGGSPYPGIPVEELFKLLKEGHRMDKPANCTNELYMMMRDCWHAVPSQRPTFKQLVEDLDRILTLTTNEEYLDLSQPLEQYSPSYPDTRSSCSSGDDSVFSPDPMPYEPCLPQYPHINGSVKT
Experimental: as §1

FGFR3 mutant (K650E) = FGFR3 mutant (K650E) (Homo sapiens, UniProt P22607, K650E); assay: Pan-FGFR mutant enzymatic activity; assay type: biochemical; details: mutant enzyme
Chain of FGFR3 mutant (K650E) (P22607 23-806 K650E): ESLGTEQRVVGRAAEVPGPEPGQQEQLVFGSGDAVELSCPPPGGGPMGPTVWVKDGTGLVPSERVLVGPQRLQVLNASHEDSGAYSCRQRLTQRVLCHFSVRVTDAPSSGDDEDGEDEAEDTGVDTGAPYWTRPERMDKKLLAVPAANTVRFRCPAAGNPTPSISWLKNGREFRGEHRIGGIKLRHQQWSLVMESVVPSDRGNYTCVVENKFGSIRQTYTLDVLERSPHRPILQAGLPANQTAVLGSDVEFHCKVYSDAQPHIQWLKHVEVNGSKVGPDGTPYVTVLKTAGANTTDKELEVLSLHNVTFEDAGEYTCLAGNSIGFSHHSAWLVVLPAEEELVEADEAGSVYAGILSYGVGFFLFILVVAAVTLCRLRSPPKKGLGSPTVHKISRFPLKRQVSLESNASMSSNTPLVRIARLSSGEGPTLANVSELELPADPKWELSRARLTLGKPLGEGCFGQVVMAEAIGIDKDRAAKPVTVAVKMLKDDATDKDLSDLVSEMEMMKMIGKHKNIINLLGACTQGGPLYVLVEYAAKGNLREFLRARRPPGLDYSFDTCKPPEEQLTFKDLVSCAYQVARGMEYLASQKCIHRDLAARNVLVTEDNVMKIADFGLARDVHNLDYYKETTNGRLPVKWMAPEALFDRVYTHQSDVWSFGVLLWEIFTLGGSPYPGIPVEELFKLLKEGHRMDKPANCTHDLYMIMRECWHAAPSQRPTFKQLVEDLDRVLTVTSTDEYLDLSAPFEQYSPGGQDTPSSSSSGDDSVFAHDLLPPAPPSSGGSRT
Experimental: as §1

FGFR2 mutant (N549H) = FGFR2 mutant (N549H) (Homo sapiens, UniProt P21802, N549H); assay: Pan-FGFR mutant enzymatic activity; assay type: biochemical; details: mutant enzyme
Chain of FGFR2 mutant (N549H) (P21802 22-821 N549H): as the sequence (P21802 22-821 V564F) above, with N528H, F543V counted along it
Experimental: as §1

FGFR3 mutant (V555M) = FGFR3 mutant (V555M) (Homo sapiens, UniProt P22607, V555M); assay: Pan-FGFR mutant enzymatic activity; assay type: biochemical; details: mutant enzyme
Chain of FGFR3 mutant (V555M) (P22607 23-806 V555M): as the sequence (P22607 23-806 K650E) above, with V533M, E628K counted along it
Experimental: as §1

FGFR3 mutant (K650M) = FGFR3 mutant (K650M) (Homo sapiens, UniProt P22607, K650M); assay: Pan-FGFR mutant enzymatic activity; assay type: biochemical; details: mutant enzyme
Chain of FGFR3 mutant (K650M) (P22607 23-806 K650M): as the sequence (P22607 23-806 K650E) above, with E628M counted along it
Experimental: as §1

[5] = In-vivo PK profile (mouse PK/ICR mice); details: plasma, ICR mice, PO 10 mg/kg
Microsomal stability [6] = assay type: in vitro ADME; details: mouse liver microsomes, based on sample taken at 0 minutes
CYP2C19 = CYP2C19 (Homo sapiens, UniProt P33261); assay: Inhibitory activity against CYP metabolic enzyme; assay type: in vitro ADME
Chain of CYP2C19 (P33261 whole entry): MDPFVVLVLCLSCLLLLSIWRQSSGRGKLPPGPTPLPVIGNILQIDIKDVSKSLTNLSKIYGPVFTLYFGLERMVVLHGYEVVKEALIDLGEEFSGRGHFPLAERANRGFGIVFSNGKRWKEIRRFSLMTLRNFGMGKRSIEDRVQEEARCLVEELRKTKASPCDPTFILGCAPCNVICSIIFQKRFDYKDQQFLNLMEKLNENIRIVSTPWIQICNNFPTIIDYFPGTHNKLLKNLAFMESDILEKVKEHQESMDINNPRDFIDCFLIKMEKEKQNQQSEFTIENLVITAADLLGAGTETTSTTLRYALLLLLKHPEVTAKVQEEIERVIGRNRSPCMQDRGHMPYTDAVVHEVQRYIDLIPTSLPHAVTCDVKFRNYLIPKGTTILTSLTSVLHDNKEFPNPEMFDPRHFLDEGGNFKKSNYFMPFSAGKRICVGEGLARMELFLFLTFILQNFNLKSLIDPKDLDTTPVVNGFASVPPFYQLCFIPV
Experimental: (§2) In order to determine whether or not there is a possibility that the compounds synthesized in Examples 1, 22, and 24 of the present invention can cause side effects of drug interaction, the rate (%) of inhibition against 5 major metabolic enzymes (CYP1A2, CYP2C9, CYP2C19, CYP2D6, and CYP3A4) among CYPs (cytochrome P450), which are enzymes involved in oxidative metabolism of drugs, was measured. […] That is, it can be seen that the compound of the present invention has a low possibility of causing side effects of drug interaction.

CYP1A2 = target: T1, CYP1A2 (Homo sapiens, UniProt P05177); assay: Inhibitory activity against CYP metabolic enzyme; assay type: in vitro ADME
T1 sequence (P05177 1-516): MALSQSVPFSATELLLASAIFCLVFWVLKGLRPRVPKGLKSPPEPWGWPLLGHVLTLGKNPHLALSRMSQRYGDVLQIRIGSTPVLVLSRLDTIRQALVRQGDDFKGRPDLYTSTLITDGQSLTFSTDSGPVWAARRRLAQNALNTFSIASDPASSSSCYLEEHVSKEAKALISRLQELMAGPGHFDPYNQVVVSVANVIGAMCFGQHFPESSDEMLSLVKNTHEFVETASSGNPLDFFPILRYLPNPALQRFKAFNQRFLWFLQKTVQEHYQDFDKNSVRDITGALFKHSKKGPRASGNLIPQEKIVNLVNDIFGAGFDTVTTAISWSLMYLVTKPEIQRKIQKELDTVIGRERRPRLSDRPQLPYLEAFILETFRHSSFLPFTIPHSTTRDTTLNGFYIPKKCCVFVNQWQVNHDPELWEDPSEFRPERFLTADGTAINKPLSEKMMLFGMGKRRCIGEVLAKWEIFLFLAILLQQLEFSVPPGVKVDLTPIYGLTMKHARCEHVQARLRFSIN
Experimental: as §2

CYP3A4 = CYP3A4 (Homo sapiens, UniProt P08684); assay: Inhibitory activity against CYP metabolic enzyme; assay type: in vitro ADME
Chain of CYP3A4 (P08684 whole entry): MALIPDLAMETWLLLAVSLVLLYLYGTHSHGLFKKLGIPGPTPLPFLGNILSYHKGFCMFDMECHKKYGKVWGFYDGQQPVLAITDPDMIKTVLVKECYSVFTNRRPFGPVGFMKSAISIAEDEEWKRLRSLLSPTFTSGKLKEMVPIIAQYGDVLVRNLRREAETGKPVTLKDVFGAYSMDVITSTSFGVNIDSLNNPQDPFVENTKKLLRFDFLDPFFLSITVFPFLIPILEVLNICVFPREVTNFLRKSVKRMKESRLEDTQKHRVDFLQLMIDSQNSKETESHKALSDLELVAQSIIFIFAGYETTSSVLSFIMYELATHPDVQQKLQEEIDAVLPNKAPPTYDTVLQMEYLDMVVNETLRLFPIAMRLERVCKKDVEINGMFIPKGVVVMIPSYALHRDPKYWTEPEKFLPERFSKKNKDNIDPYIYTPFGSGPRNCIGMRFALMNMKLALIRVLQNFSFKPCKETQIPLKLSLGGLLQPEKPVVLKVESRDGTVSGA
Experimental: as §2

CYP2D6 = CYP2D6 (Homo sapiens, UniProt P10635); assay: Inhibitory activity against CYP metabolic enzyme; assay type: in vitro ADME
Chain of CYP2D6 (P10635 whole entry): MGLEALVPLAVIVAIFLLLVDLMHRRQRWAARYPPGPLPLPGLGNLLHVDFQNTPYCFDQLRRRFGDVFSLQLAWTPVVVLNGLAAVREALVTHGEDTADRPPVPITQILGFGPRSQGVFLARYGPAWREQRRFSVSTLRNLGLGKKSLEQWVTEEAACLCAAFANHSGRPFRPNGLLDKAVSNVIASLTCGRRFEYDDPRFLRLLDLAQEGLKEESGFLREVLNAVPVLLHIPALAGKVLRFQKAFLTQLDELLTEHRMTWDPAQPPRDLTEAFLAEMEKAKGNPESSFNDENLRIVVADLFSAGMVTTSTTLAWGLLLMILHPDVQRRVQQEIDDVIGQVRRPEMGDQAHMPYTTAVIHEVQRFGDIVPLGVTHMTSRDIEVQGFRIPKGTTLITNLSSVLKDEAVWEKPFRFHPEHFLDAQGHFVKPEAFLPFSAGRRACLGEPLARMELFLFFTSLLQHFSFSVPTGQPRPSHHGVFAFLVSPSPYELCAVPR
Experimental: as §2

Microsomal stability [7] = assay type: in vitro ADME; details: human liver microsomes, based on sample taken at 0 minutes
Microsomal stability [8] = assay type: in vitro ADME; details: dog liver microsomes, based on sample taken at 0 minutes
Microsomal stability [9] = assay type: in vitro ADME; details: rat liver microsomes, based on sample taken at 0 minutes

GI50 [1]: < 1000 nM
SMILES: COc1cc(OC)c(Cl)c(Nc2ncccc2-c2ncnc(N)n2)c1Cl [Example 2, 4-(2-((2,6-dichloro-3,5-dimethoxyphenyl)amino)pyridin-3-yl)-1,3,5-triazin-2-amine]

GI50 [1]: 1000 to 10000 nM
SMILES: COc1cc(OC)c(Cl)c(Nc2ncccc2-c2ncnc(NCCN(C)C)n2)c1Cl [Example 3, N^1-(4-(2-((2,6-dichloro-3,5-dimethoxyphenyl)amino)pyridin-3-yl)-1,3,5-triazin-2-yl)-N^2,N^2-dimethylethane-1,2-diamine]

GI50 [1]: < 1000 nM
SMILES: COc1cc(OC)c(Cl)c(Nc2ncccc2-c2ncnc(Nc3ccccc3)n2)c1Cl [Example 4, 4-(2-((2,6-dichloro-3,5-dimethoxyphenyl)amino)pyridin-3-yl)-N-phenyl-1,3,5-triazin-2-amine]

GI50 [1]: 1000 to 10000 nM
SMILES: COc1ccccc1Nc1ncnc(-c2cccnc2Nc2c(Cl)c(OC)cc(OC)c2Cl)n1 [Example 5]

GI50 [1]: < 1000 nM
SMILES: COc1cccc(Nc2ncnc(-c3cccnc3Nc3c(Cl)c(OC)cc(OC)c3Cl)n2)c1 [Example 6]

GI50 [1]: < 1000 nM
SMILES: COc1cc(OC)c(Cl)c(Nc2ncccc2-c2ncnc(Nc3ccc(N(C)C)cc3)n2)c1Cl [Example 7, N^1-(4-(2-((2,6-dichloro-3,5-dimethoxyphenyl)amino)pyridin-3-yl)-1,3,5-triazin-2-yl)-N^4,N^4-dimethylbenzene-1,4-diamine]

GI50 [1]: < 1000 nM
GI50 [2]: 1000 to 10000 nM
GI50 [3]: < 1000 nM
GI50 [4]: 1000 to 10000 nM
IC50 (FGFR2 mutant (V564F)): 100 to 1000 nM
IC50 (FGFR3 mutant (K650E)): < 100 nM
IC50 (FGFR2 mutant (N549H)): < 100 nM
IC50 (FGFR3 mutant (V555M)): 100 to 1000 nM
IC50 (FGFR3 mutant (K650M)): < 100 nM
SMILES: CCN1CCN(c2cccc(Nc3ncnc(-c4cccnc4Nc4c(Cl)c(OC)cc(OC)c4Cl)n3)c2)CC1 [Example 8]
GI50 (AN3-CA): < 1000 nM

GI50 [1]: 1000 to 10000 nM
SMILES: COc1cc(OC)c(Cl)c(Nc2ncccc2-c2ncnc(Nc3ccc(N4CCOCC4)cc3)n2)c1Cl [Example 9]

GI50 [1]: < 1000 nM
SMILES: COc1cc(OC)c(Cl)c(Nc2ncccc2-c2ncnc(Nc3ccc(N4CCOCC4)nc3)n2)c1Cl [Example 10]

GI50 [1]: < 1000 nM
SMILES: COc1cc(OC)c(Cl)c(Nc2ncccc2-c2ncnc(Nc3ccc(N4CCN(C(C)=O)CC4)cc3)n2)c1Cl [Example 11, 1-(4-(4-((4-(2-((2,6-dichloro-3,5-dimethoxyphenyl)amino)pyridin-3-yl)-1,3,5-triazin-2-yl)amino)phenyl)piperazin-1-yl)ethan-1-one]

GI50 [1]: < 1000 nM
SMILES: COc1cc(OC)c(Cl)c(Nc2ncccc2-c2ncnc(Nc3ccc(N4CCC(O)CC4)cc3)n2)c1Cl [Example 12]

GI50 [1]: < 1000 nM
GI50 [2]: < 1000 nM
GI50 [3]: < 1000 nM
GI50 [4]: 1000 to 10000 nM
IC50 (FGFR2 mutant (V564F)): 100 to 1000 nM
IC50 (FGFR3 mutant (K650E)): < 100 nM
IC50 (FGFR2 mutant (N549H)): < 100 nM
IC50 (FGFR3 mutant (V555M)): 100 to 1000 nM
IC50 (FGFR3 mutant (K650M)): < 100 nM
SMILES: COc1cc(OC)c(Cl)c(Nc2ncccc2-c2ncnc(Nc3ccc(N4C[C@@H](C)N[C@@H](C)C4)cc3)n2)c1Cl [Example 13]
GI50 (AN3-CA): < 1000 nM

GI50 [1]: < 1000 nM
SMILES: COc1cc(N2CCN(C)CC2)ccc1Nc1ncnc(-c2cccnc2Nc2c(Cl)c(OC)cc(OC)c2Cl)n1 [Example 14]

GI50 [1]: > 10000 nM
SMILES: COc1cc(N2CCOCC2)ccc1Nc1ncnc(-c2cccnc2Nc2c(Cl)c(OC)cc(OC)c2Cl)n1 [Example 15]

GI50 [1]: > 10000 nM
SMILES: COc1cc(OC)c(Cl)c(Nc2ncccc2-c2ncnc(Nc3ccc(N4CCOCC4)nc3OC)n2)c1Cl [Example 16]

GI50 [1]: < 1000 nM
SMILES: COc1cc(N2C[C@@H](C)N[C@@H](C)C2)ccc1Nc1ncnc(-c2cccnc2Nc2c(Cl)c(OC)cc(OC)c2Cl)n1 [Example 17]

GI50 [1]: < 1000 nM
SMILES: COc1cc(OC)c(Cl)c(Nc2ncccc2-c2ncnc(Nc3cnn(C)c3)n2)c1Cl [Example 18]

GI50 [1]: > 10000 nM
SMILES: C=CCn1cc(Nc2ncnc(-c3cccnc3Nc3c(Cl)c(OC)cc(OC)c3Cl)n2)cn1 [Example 19, N-(1-allyl-1H-pyrazol-4-yl)-4-(2-((2,6-dichloro-3,5-dimethoxyphenyl)amino)pyridin-3-yl)-1,3,5-triazin-2-amine]

GI50 [1]: < 1000 nM
SMILES: COc1cc(OC)c(Cl)c(Nc2ncccc2-c2ncnc(Nc3cnn(CCCN(C)C)c3)n2)c1Cl [Example 20, 4-(2-((2,6-dichloro-3,5-dimethoxyphenyl)amino)pyridin-3-yl)-N-(1-(3-(dimethylamino)propyl)-1H-pyrazol-4-yl)-1,3,5-triazin-2-amine]

GI50 [1]: < 1000 nM
SMILES: COc1cc(OC)c(Cl)c(Nc2ncccc2-c2ncnc(Nc3cnn(C4CCOCC4)c3)n2)c1Cl [Example 21, 4-(2-((2,6-dichloro-3,5-dimethoxyphenyl)amino)pyridin-3-yl)-N-(1-(tetrahydro-2H-pyran-4-yl)-1H-pyrazol-4-yl)-1,3,5-triazin-2-amine]

GI50 [1]: < 1000 nM
SMILES: COc1cc(OC)c(Cl)c(Nc2ncccc2-c2ncnc(Nc3cnn(C4CCN(C(=O)OC(C)(C)C)CC4)c3)n2)c1Cl [Example 23, Tert-butyl 4-(4-((4-(2-((2,6-dichloro-3,5-dimethoxyphenyl)amino)pyridin-3-yl)-1,3,5-triazin-2-yl)amino)-1H-pyrazol-1-yl) piperidine-1-carboxylate]

GI50 [1]: < 1000 nM
GI50 [2]: 1000 to 10000 nM
GI50 [3]: < 1000 nM
GI50 [4]: 1000 to 10000 nM
Cmax [5]: 153 ng/mL
MRT inf [5]: 7.94 h
Tmax [5]: 0.42 h
half-life [5]: 4.83 h
remaining (%) after reaction with the microsome, Mouse (Microsomal stability [6]): 62.1%
remaining (%) after reaction with the microsome, Mouse (Microsomal stability [6]; listed as Compound No. 24): 62.1%
IC50 (FGFR2 mutant (V564F)): 100 to 1000 nM
IC50 (FGFR3 mutant (K650E)): < 100 nM
IC50 (FGFR2 mutant (N549H)): < 100 nM
IC50 (FGFR3 mutant (V555M)): 100 to 1000 nM
IC50 (FGFR3 mutant (K650M)): < 100 nM
rate (%) of inhibition, CYP2C19 (CYP2C19): 51.0%
rate (%) of inhibition, CYP1A2 (CYP1A2): 72.8%
rate (%) of inhibition, CYP3A4 (CYP3A4): 44.1%
rate (%) of inhibition, CYP2D6 (CYP2D6): >100%
remaining (%) after reaction with the microsome, Human (Microsomal stability [7]): 62.6%
remaining (%) after reaction with the microsome, Human (Microsomal stability [7]; listed as Compound No. 24): 62.6%
remaining (%) after reaction with the microsome, Dog (Microsomal stability [8]): 66.9%
remaining (%) after reaction with the microsome, Dog (Microsomal stability [8]; listed as Compound No. 24): 66.9%
remaining (%) after reaction with the microsome, Rat (Microsomal stability [9]): 65.4%
remaining (%) after reaction with the microsome, Rat (Microsomal stability [9]; listed as Compound No. 24): 65.43%
SMILES: COc1cc(OC)c(Cl)c(Nc2ncccc2-c2ncnc(Nc3cnn(C4CCNCC4)c3)n2)c1Cl [Example 24, 4-(2-((2,6-dichloro-3,5-dimethoxyphenyl)amino)pyridin-3-yl)-N-(1-(piperidin-4-yl)-1H-pyrazol-4-yl)-1,3,5-triazin-2-amine]
GI50 (AN3-CA): < 1000 nM
